# Source: US11109593B2, “Isoxazolin-5-one derivative and herbicide containing same as active ingredient” (HOKKO CHEMICAL INDUSTRY CO., LTD., priority 2017, dated 2021)
# Test system: Echinochloa crus-galli
# Experiment: Test Example 1: herbicidal effect test by treatment of rice paddy soil (immediately after seeding)
# Assay type: in vivo
# Conditions: 120 g/10a active ingredient, dry weight vs untreated area, 14 days after treatment
# In short: (§1)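 Paddy soil in pots with compound fertilizer, puddled; 30 seeds per species sown at 0–1 cm, flooded ~3 cm, greenhouse. Water-diluted emulsions dropped onto water immediately after seeding at 120 g active ingredient per 10 ares, duplicate. Herbicidal rate (%) from plant dry weight versus untreated, 14 days after treatment.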
row,SMILES,Herbicidal rate (%) Echinochloa crus-galli
1,CCC(C)n1oc(=O)c(Cc2ccccc2N(C(C)=O)S(=O)(=O)C(F)(F)F)c1C (centres unmarked) [Compound 1-294],90%
2,Cc1c(Cc2ccccc2NS(=O)(=O)C(F)(F)F)c(=O)on1C1CCCCC1 [Compound 1-142],100%

# Test system: Scirpus juncoides
# Experiment: as above
# Assay type: in vivo
# Conditions: 120 g/10a active ingredient, dry weight vs untreated area, 14 days after treatment
# In short: as §1
row,SMILES,Herbicidal rate (%) Scirpus juncoides
1,CCC(C)n1oc(=O)c(Cc2ccccc2N(C(C)=O)S(=O)(=O)C(F)(F)F)c1C (centres unmarked) [Compound 1-294],90%
2,Cc1c(Cc2ccccc2NS(=O)(=O)C(F)(F)F)c(=O)on1C1CCCCC1 [Compound 1-142],90%

# Test system: broad leaf weeds (Lindernia pyxidaria and Monochoria vaginalis)
# Experiment: as above
# Assay type: in vivo
# Conditions: Lindernia pyxidaria, 120 g/10a active ingredient, dry weight vs untreated area, 14 days after treatment
# In short: as §1
row,SMILES,Herbicidal rate (%) Lindernia pyxidaria
1,CCC(C)n1oc(=O)c(Cc2ccccc2N(C(C)=O)S(=O)(=O)C(F)(F)F)c1C (centres unmarked) [Compound 1-294],90%
2,Cc1c(Cc2ccccc2NS(=O)(=O)C(F)(F)F)c(=O)on1C1CCCCC1 [Compound 1-142],100%

# Same assay, conditions: Monochoria vaginalis, 120 g/10a active ingredient, dry weight vs untreated area, 14 days after treatment
row,SMILES,Herbicidal rate (%) Monochoria vaginalis
1,CCC(C)n1oc(=O)c(Cc2ccccc2N(C(C)=O)S(=O)(=O)C(F)(F)F)c1C (centres unmarked) [Compound 1-294],90%
2,Cc1c(Cc2ccccc2NS(=O)(=O)C(F)(F)F)c(=O)on1C1CCCCC1 [Compound 1-142],90%

# Test system: Echinochloa crus-galli
# Experiment: Test Example 2: herbicidal effect test by treatment during growing period in paddy rice cultivation (seven days after seeding)
# Assay type: in vivo
# Conditions: 120 g/10a active ingredient, assessed 14 days after treatment, dry weight vs untreated area
# In short: (§2)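 Seeds sown 0–1 cm deep in puddled, fertilised paddy soil with about 3 cm standing water in a glass greenhouse. Diluted emulsion dropped into the water seven days after seeding at 120 g active ingredient per 10 ares. Herbicidal rate (%) from mean dry weight vs untreated, duplicate, 14 days after treatment.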
row,SMILES,Herbicidal rate (%) Echinochloa crus-galli
1,CCC(C)n1oc(=O)c(Cc2ccccc2N(C(C)=O)S(=O)(=O)C(F)(F)F)c1C (centres unmarked) [Compound 1-294],90%
2,Cc1c(Cc2ccccc2NS(=O)(=O)C(F)(F)F)c(=O)on1C1CCCCC1 [Compound 1-142],100%

# Test system: Scirpus juncoides
# Experiment: as above
# Assay type: in vivo
# Conditions: 120 g/10a active ingredient, assessed 14 days after treatment, dry weight vs untreated area
# In short: as §2
row,SMILES,Herbicidal rate (%) Scirpus juncoides
1,CCC(C)n1oc(=O)c(Cc2ccccc2N(C(C)=O)S(=O)(=O)C(F)(F)F)c1C (centres unmarked) [Compound 1-294],90%
2,Cc1c(Cc2ccccc2NS(=O)(=O)C(F)(F)F)c(=O)on1C1CCCCC1 [Compound 1-142],90%

# Test system: broad leaf weeds (Lindernia pyxidaria and Monochoria vaginalis)
# Experiment: as above
# Assay type: in vivo
# Conditions: Lindernia pyxidaria, 120 g/10a active ingredient, assessed 14 days after treatment, dry weight vs untreated area
# In short: as §2
row,SMILES,Herbicidal rate (%) Lindernia pyxidaria
1,CCC(C)n1oc(=O)c(Cc2ccccc2N(C(C)=O)S(=O)(=O)C(F)(F)F)c1C (centres unmarked) [Compound 1-294],90%
2,Cc1c(Cc2ccccc2NS(=O)(=O)C(F)(F)F)c(=O)on1C1CCCCC1 [Compound 1-142],90%

# Same assay, conditions: Monochoria vaginalis, 120 g/10a active ingredient, assessed 14 days after treatment, dry weight vs untreated area
row,SMILES,Herbicidal rate (%) Monochoria vaginalis
1,CCC(C)n1oc(=O)c(Cc2ccccc2N(C(C)=O)S(=O)(=O)C(F)(F)F)c1C (centres unmarked) [Compound 1-294],90%
2,Cc1c(Cc2ccccc2NS(=O)(=O)C(F)(F)F)c(=O)on1C1CCCCC1 [Compound 1-142],100%

# Test system: Amaranthus viridis
# Experiment: Test Example 3: herbicidal effect test by treatment of dry field farming soil (one day after seeding)
# Assay type: in vivo
# Conditions: 120 g/10a active ingredient, evaluated 14 days after treatment
# In short: (§3)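 Alluvial dry-field soil in pots, top 1 cm mixed with 20 seeds per weed species. One day after seeding, the water-diluted emulsion was sprayed onto the soil surface at 100 L per 10 ares (120 g active ingredient per 10 ares). Duplicate pots; herbicidal rate (%) from plant dry weight versus untreated, 14 days after treatment.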
row,SMILES,"herbicidal rate, Amaranthus viridis"
1,CCC(C)n1oc(=O)c(Cc2ccccc2N(C(C)=O)S(=O)(=O)C(F)(F)F)c1C (centres unmarked) [Compound 1-294],90%
2,Cc1c(Cc2ccccc2NS(=O)(=O)C(F)(F)F)c(=O)on1C1CCCCC1 [Compound 1-142],70%

# Test system: Chenopodium album
# Experiment: as above
# Assay type: in vivo
# Conditions: 120 g/10a active ingredient, evaluated 14 days after treatment
# In short: as §3
row,SMILES,"herbicidal rate, Chenopodium album"
1,CCC(C)n1oc(=O)c(Cc2ccccc2N(C(C)=O)S(=O)(=O)C(F)(F)F)c1C (centres unmarked) [Compound 1-294],90%
2,Cc1c(Cc2ccccc2NS(=O)(=O)C(F)(F)F)c(=O)on1C1CCCCC1 [Compound 1-142],90%

# Test system: Echinochloa crus-galli
# Experiment: as above
# Assay type: in vivo
# Conditions: 120 g/10a active ingredient, evaluated 14 days after treatment
# In short: as §3
row,SMILES,"herbicidal rate, Echinochloa crus-galli"
1,CCC(C)n1oc(=O)c(Cc2ccccc2N(C(C)=O)S(=O)(=O)C(F)(F)F)c1C (centres unmarked) [Compound 1-294],90%
2,Cc1c(Cc2ccccc2NS(=O)(=O)C(F)(F)F)c(=O)on1C1CCCCC1 [Compound 1-142],100%

# Test system: southern crabgrass
# Experiment: as above
# Assay type: in vivo
# Conditions: 120 g/10a active ingredient, evaluated 14 days after treatment
# In short: as §3
row,SMILES,"herbicidal rate, southern crabgrass"
1,CCC(C)n1oc(=O)c(Cc2ccccc2N(C(C)=O)S(=O)(=O)C(F)(F)F)c1C (centres unmarked) [Compound 1-294],90%
2,Cc1c(Cc2ccccc2NS(=O)(=O)C(F)(F)F)c(=O)on1C1CCCCC1 [Compound 1-142],90%

# Test system: Amaranthus viridis
# Experiment: Test Example 4: herbicidal effect test by treatment of leave and stem in dry field farming (seven days after seeding)
# Assay type: in vivo
# Conditions: 120 g/10a active ingredient; emulsion sprayed seven days after seeding; evaluated 14 days after treatment
# In short: (§4)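 Weeds were seeded at 20 seeds per species into the top 1 cm of alluvial upland soil in pots, then sprayed 7 days after seeding with water-diluted emulsifiable concentrate at 100 L/10 a, giving 120 g active ingredient/10 a. Duplicate pots; herbicidal rate (%) was 14 days post-treatment, from dry weight versus untreated.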
row,SMILES,"herbicidal effect (herbicidal rate), Amaranthus viridis"
1,CCC(C)n1oc(=O)c(Cc2ccccc2N(C(C)=O)S(=O)(=O)C(F)(F)F)c1C (centres unmarked) [Compound 1-294],40%
2,Cc1c(Cc2ccccc2NS(=O)(=O)C(F)(F)F)c(=O)on1C1CCCCC1 [Compound 1-142],60%

# Test system: Chenopodium album
# Experiment: as above
# Assay type: in vivo
# Conditions: 120 g/10a active ingredient; emulsion sprayed seven days after seeding; evaluated 14 days after treatment
# In short: as §4
row,SMILES,"herbicidal effect (herbicidal rate), Chenopodium album"
1,CCC(C)n1oc(=O)c(Cc2ccccc2N(C(C)=O)S(=O)(=O)C(F)(F)F)c1C (centres unmarked) [Compound 1-294],40%
2,Cc1c(Cc2ccccc2NS(=O)(=O)C(F)(F)F)c(=O)on1C1CCCCC1 [Compound 1-142],40%

# Test system: Echinochloa crus-galli
# Experiment: as above
# Assay type: in vivo
# Conditions: 120 g/10a active ingredient; emulsion sprayed seven days after seeding; evaluated 14 days after treatment
# In short: as §4
row,SMILES,"herbicidal effect (herbicidal rate), Echinochloa crus-galli"
1,CCC(C)n1oc(=O)c(Cc2ccccc2N(C(C)=O)S(=O)(=O)C(F)(F)F)c1C (centres unmarked) [Compound 1-294],90%
2,Cc1c(Cc2ccccc2NS(=O)(=O)C(F)(F)F)c(=O)on1C1CCCCC1 [Compound 1-142],90%

# Test system: southern crabgrass
# Experiment: as above
# Assay type: in vivo
# Conditions: 120 g/10a active ingredient; emulsion sprayed seven days after seeding; evaluated 14 days after treatment
# In short: as §4
row,SMILES,"herbicidal effect (herbicidal rate), southern crabgrass"
1,CCC(C)n1oc(=O)c(Cc2ccccc2N(C(C)=O)S(=O)(=O)C(F)(F)F)c1C (centres unmarked) [Compound 1-294],90%
2,Cc1c(Cc2ccccc2NS(=O)(=O)C(F)(F)F)c(=O)on1C1CCCCC1 [Compound 1-142],80%
